Reference: PubChem BioAssay (NCI)
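How tested: cells in 96-well plates exposed to compound for 48 hours at five concentrations. TGI is the concentration that stops growth completely.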

Assays:
Test in all cases: NCI-60 cell line screen, 48 h
[1] = system: K-562 leukemia
[2] = system: SF-539 CNS
[3] = system: MALME-3M melanoma
[4] = system: OVCAR-8 ovarian
[5] = system: NCI-H226 lung
[6] = system: HL-60(TB) leukemia
[7] = system: SW-620 colon
[8] = system: SN12C renal
[9] = system: SF-268 CNS
[10] = system: UACC-62 melanoma
[11] = system: NCI/ADR-RES ovarian
[12] = system: DU-145 prostate
[13] = system: MDA-MB-231 breast
[14] = system: MOLT-4 leukemia
[15] = system: HOP-62 NSCLC
[16] = system: NCI-H23 lung
[17] = system: MDA-MB-435
[18] = system: CCRF-CEM leukemia
[19] = system: RPMI-8226 leukemia
[20] = system: SK-OV-3 ovarian
[21] = system: SF-295 CNS
[22] = system: SK-MEL-28 melanoma
[23] = system: SR leukemia
[24] = system: 786-0 renal
[25] = system: UACC-257 melanoma
[26] = system: U251 CNS
[27] = system: PC-3 prostate
[28] = system: MCF7 breast
[29] = system: KM12 colon
[30] = system: OVCAR-3 ovarian
[31] = system: COLO 205 colon
[32] = system: SK-MEL-5 melanoma
[33] = system: BT-549 breast
[34] = system: A549 NSCLC
[35] = system: ACHN renal
[36] = system: SNB-75 CNS
[37] = system: M14 melanoma
[38] = system: CAKI-1 renal
[39] = system: OVCAR-5 ovarian
[40] = system: NCI-H522 lung
[41] = system: LOX IMVI melanoma
[42] = system: HCT-116 colon
[43] = system: RXF 393 renal
[44] = system: IGROV1 ovarian
[45] = system: SNB-19 CNS
[46] = system: HCT-15 colon
[47] = system: TK-10 renal
[48] = system: HT29 colon
[49] = system: MDA-N
[50] = system: EKVX NSCLC
[51] = system: T-47D breast
[52] = system: UO-31 renal
[53] = system: OVCAR-4 ovarian
[54] = system: HCC-2998 colon
[55] = system: HOP-92 NSCLC
[56] = system: NCI-H460 lung
[57] = system: SK-MEL-2 melanoma

For `CN1CN(c2ccccc2)C2(CCN(CC(C)(c3ccc(F)cc3)C3OCCCO3)CC2)C1=O` (configuration not stated), the TGI [1] was 38.6 µM, the TGI [2] was 26.5 µM and the TGI [3] was 30 µM. The TGI [4] was 38.5 µM, the TGI [5] was 42.7 µM and the TGI [6] was 33.7 µM. The TGI [7] was 43.7 µM, the TGI [8] was 34.6 µM and the TGI [9] was 44.9 µM. The TGI [10] was 34.6 µM, the TGI [11] was 26.9 µM and the TGI [12] was > 100 µM. The TGI [13] was 60.8 µM, the TGI [14] was 33.2 µM and the TGI [15] was 30.7 µM. For the same compound, the TGI [16] was 32.9 µM, the TGI [17] was 24.5 µM and the TGI [18] was 45.9 µM. It also gave a TGI [19] of 27.3 µM, a TGI [20] of 67.1 µM and a TGI [21] of 33.4 µM. It also gave a TGI [22] of 34.6 µM, a TGI [23] of 30.4 µM and a TGI [24] of 43.1 µM. It also gave a TGI [25] of 31.5 µM, a TGI [26] of 26.6 µM and a TGI [27] of 34.7 µM. The TGI [28] was 30.2 µM, the TGI [29] was 31.1 µM and the TGI [30] was 24.5 µM. It also gave a TGI [31] of 44.3 µM, a TGI [32] of 30.1 µM and a TGI [33] of 19.2 µM. For the same compound, the TGI [34] was 61.9 µM, the TGI [35] was 49.2 µM and the TGI [36] was 46.6 µM. The TGI [37] was 34.5 µM, the TGI [38] was 65.3 µM and the TGI [39] was 25.7 µM. For the same compound, the TGI [40] was 33.6 µM, the TGI [41] was 31.8 µM and the TGI [42] was 28.7 µM. It also gave a TGI [43] of 39.5 µM, a TGI [44] of 38.9 µM and a TGI [45] of 42 µM. The TGI [46] was 33.9 µM, the TGI [47] was 31.9 µM and the TGI [48] was 27.3 µM. It also gave a TGI [49] of 31.6 µM, a TGI [50] of 54.8 µM and a TGI [51] of 56.2 µM. It also gave a TGI [52] of 11 µM.

In the case of `O=C1CC(c2ccccc2)C2(C(=O)NC(=S)NC2=O)C(c2ccccc2)C1` (configuration not stated), the TGI [1] is reported as > 75 µM, the TGI [2] is reported as > 75 µM and the TGI [3] is reported as > 75 µM. The TGI [4] was > 75 µM, the TGI [5] was > 75 µM and the TGI [6] was > 75 µM. The TGI [7] was > 75 µM, the TGI [8] was > 75 µM and the TGI [9] was > 75 µM. The TGI [10] was > 75 µM, the TGI [11] was > 75 µM and the TGI [12] was > 75 µM. The TGI [13] was > 75 µM, the TGI [14] was > 75 µM and the TGI [15] was > 75 µM. For the same compound, the TGI [16] was > 75 µM, the TGI [17] was > 75 µM and the TGI [18] was > 75 µM. The TGI [19] was 73.3 µM, the TGI [53] was > 75 µM and the TGI [21] was > 75 µM. For the same compound, the TGI [22] was > 75 µM, the TGI [54] was > 75 µM and the TGI [23] was > 75 µM. For the same compound, the TGI [24] was > 75 µM, the TGI [25] was > 75 µM and the TGI [26] was > 75 µM. For the same compound, the TGI [27] was > 75 µM, the TGI [28] was > 75 µM and the TGI [29] was > 75 µM. For the same compound, the TGI [30] was > 75 µM, the TGI [31] was > 75 µM and the TGI [32] was > 75 µM. The TGI [33] was > 75 µM, the TGI [35] was > 75 µM and the TGI [36] was > 75 µM. For the same compound, the TGI [55] was > 75 µM, the TGI [37] was > 75 µM and the TGI [38] was > 75 µM. For the same compound, the TGI [56] was > 75 µM, the TGI [39] was > 75 µM and the TGI [40] was > 75 µM. The TGI [41] was > 75 µM, the TGI [42] was > 75 µM and the TGI [43] was > 75 µM. For the same compound, the TGI [57] was > 75 µM, the TGI [44] was > 75 µM and the TGI [45] was > 75 µM. The TGI [46] was > 75 µM, the TGI [47] was > 75 µM and the TGI [48] was > 75 µM. The TGI [49] was > 75 µM, the TGI [50] was > 75 µM and the TGI [51] was > 75 µM. For the same compound, the TGI [52] was > 75 µM.
